± gives the uncertainty stated by the source.
Experiment: xn = mol fraction of the nth substance listed
Settings: 100 kPa

## CCCC[N+](CCCC)(CCCC)CCCC.[Cl-] + CC(C)C[C@H](N)C(=O)O
313.15 K, x1 = 0.8889
  electrical conductivity: 0.0188 S/m
  viscosity: 1070 ± 120 mPa·s
313.15 K, x1 = 0.9
  electrical conductivity: 0.0149 S/m
  viscosity: 940 ± 100 mPa·s
313.15 K, x1 = 0.9091
  electrical conductivity: 0.0194 S/m
  viscosity: 890 ± 95 mPa·s
323.15 K, x1 = 0.8889
  electrical conductivity: 0.0377 S/m
  viscosity: 444 ± 47 mPa·s
323.15 K, x1 = 0.9
  electrical conductivity: 0.027 S/m
  viscosity: 517 ± 54 mPa·s
323.15 K, x1 = 0.9091
  electrical conductivity: 0.0302 S/m
  viscosity: 410 ± 43 mPa·s
333.15 K, x1 = 0.8889
  electrical conductivity: 0.0631 S/m
  viscosity: 219 ± 23 mPa·s
333.15 K, x1 = 0.9
  electrical conductivity: 0.0441 S/m
  viscosity: 259 ± 27 mPa·s
333.15 K, x1 = 0.9091
  electrical conductivity: 0.054 S/m
  viscosity: 197 ± 20 mPa·s
343.15 K, x1 = 0.8889
  electrical conductivity: 0.0885 S/m
  viscosity: 123 ± 12 mPa·s
343.15 K, x1 = 0.9
  electrical conductivity: 0.068 S/m
  viscosity: 146 ± 15 mPa·s
343.15 K, x1 = 0.9091
  electrical conductivity: 0.0761 S/m
  viscosity: 114 ± 12 mPa·s
353.15 K, x1 = 0.8889
  electrical conductivity: 0.12 S/m
  viscosity: 76 ± 8 mPa·s
353.15 K, x1 = 0.9
  electrical conductivity: 0.0891 S/m
  viscosity: 88.1 ± 8.9 mPa·s
353.15 K, x1 = 0.9091
  electrical conductivity: 0.0971 S/m
  viscosity: 99 ± 10 mPa·s

## CCCC[N+](CCCC)(CCCC)CCCC.[Cl-] + OCC(O)CO
293.15 K, x1 = 0.333
  electrical conductivity: 0.0303 ± 0.003 S/m
  viscosity: 870 ± 320 mPa·s
303.15 K, x1 = 0.333
  electrical conductivity: 0.0527 ± 0.0053 S/m
  viscosity: 500 ± 150 mPa·s
313.15 K, x1 = 0.333
  electrical conductivity: 0.0885 ± 0.0089 S/m
  viscosity: 298 ± 70 mPa·s
323.15 K, x1 = 0.333
  electrical conductivity: 0.144 ± 0.014 S/m
  viscosity: 184 ± 31 mPa·s
333.15 K, x1 = 0.333
  electrical conductivity: 0.228 ± 0.023 S/m
  viscosity: 117 ± 13 mPa·s
